Read-outs that look alike come from different tables or passages of the source.
Assays:
[1] = test system: human resting CD4+ T cells; experiment: Calcium imaging in resting CD4+ T cells; assay type: cell-based; conditions: GABA 500 nM; n = 47 cells
Method: Calcium imaging was performed as previously described ([12]). In brief, cells were loaded with 3 μM Fluo-8 AM calcium indicator (AAT Bioquest, Pleasanton, CA, USA) for 10 min at 37 °C and then seeded onto coverslips coated with 5% (3-aminopropyl)triethoxysilane (Sigma Aldrich) for 20 min at 37 °C. Calcium imaging was performed using a Zeiss LSM700 confocal microscope with a ×20 objective, capturing images at 0.5-s intervals. The recording solution was prepared by mixing two types of RPMI 1640 media, one containing 11 mM glucose (Gibco, Fisher Scientific, Sweden) and the other is glucose-free (Gibco, Fisher Scientific, Sweden). They were mixed in a 1:1 ratio, giving a final glucose concentration of 5.5 mM. The drugs were diluted in the recording solution and perfused into the chamber at specific concentrations using a peristaltic pump. After each drug application, the cells were perfused with the recording solution only to remove the drug. When the cells were again in the recording solution only, then the next test drug concentration was perfused into the chamber. […] The area around the individual cells was marked, and absolute fluorescence intensity values (F) were extracted using ZENBlue software. The relative intensity (F/Fmedian) for each cell was calculated for every recorded image and plotted against time. […]

[2] = molecular target: T1, GABAA receptors in activated human CD4+ T cells (Homo sapiens, UniProt P28476); conditions: ref [12], cited from earlier work
T1 sequence (P28476 21-465): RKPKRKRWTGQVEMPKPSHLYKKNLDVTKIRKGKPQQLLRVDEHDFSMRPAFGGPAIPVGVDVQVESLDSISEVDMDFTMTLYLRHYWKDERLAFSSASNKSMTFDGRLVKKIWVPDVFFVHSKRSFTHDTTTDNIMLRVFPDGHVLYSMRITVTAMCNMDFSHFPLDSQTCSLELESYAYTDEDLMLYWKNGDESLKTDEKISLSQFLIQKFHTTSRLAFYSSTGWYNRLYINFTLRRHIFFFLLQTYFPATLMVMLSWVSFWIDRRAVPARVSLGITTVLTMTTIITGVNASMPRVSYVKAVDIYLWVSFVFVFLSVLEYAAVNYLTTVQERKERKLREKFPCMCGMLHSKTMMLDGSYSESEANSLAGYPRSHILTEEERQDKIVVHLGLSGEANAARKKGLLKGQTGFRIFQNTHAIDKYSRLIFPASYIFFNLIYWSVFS

[3] = molecular target: T1, GABAA receptors in activated human CD4+ T cells; experiment: Calcium imaging: agonist-evoked intracellular Ca2+ response in activated CD4+ T cells; assay type: cell-based
Text: Human blood samples and blood buffy coats were obtained from Uppsala University Hospital (Uppsala Akademiska sjukhuset), the protocol of which was approved by the Regional Research Ethics Committee in Uppsala (Dnr 2013/347). All individuals who donated blood were voluntarily recruited. Peripheral blood mononuclear cells (PBMCs) were isolated from blood samples using density-gradient centrifugation with Ficoll-Paque™ PLUS (Sigma Aldrich, Sweden). Subsequently, CD4^+ T lymphocytes were isolated from the PBMCs by negative selection, utilizing a human CD4^+ T lymphocyte isolation kit (Miltenyi Biotec, Germany) as per the manufacturer’s instructions. The freshly isolated CD4^+ T lymphocytes (1 million cells/mL) were suspended in human plasma-like medium (HPLM) (Gibco, Fisher Scientific, Sweden) containing 10% heat-inactivated dialyzed fetal bovine serum (Gibco, Fisher Scientific, Sweden), 100 μg/mL streptomycin, 100 U/mL penicillin (Gibco, Fisher Scientific, Sweden), and 5 μM β-mercaptoethanol (Gibco, Fisher Scientific, Sweden). The cells were activated in a 96-well plate (1 × 10^5–1.2 × 10^5 cells/well) with 3 μg/mL plate-bound anti-CD3 antibody (BD Biosciences, USA) for 72 h. Insulin (1 nM) was added at 48 h after the activation of the cells. The anti-CD3 concentration (5 μg/mL) used by Jacobs et al. ([14]) is similar to the one employed in this study. […] Akt-dependent signaling is activated by insulin at 48 h post-activation and is reminiscent of the anti-CD28-evoked signaling ([14]).
Calcium imaging was performed as previously described ([12]). In brief, cells were loaded with 3 μM Fluo-8 AM calcium indicator (AAT Bioquest, Pleasanton, CA, USA) for 10 min at 37 °C and then seeded onto coverslips coated with 5% (3-aminopropyl)triethoxysilane (Sigma Aldrich) for 20 min at 37 °C. Calcium imaging was performed using a Zeiss LSM700 confocal microscope with a ×20 objective, capturing images at 0.5-s intervals. The recording solution was prepared by mixing two types of RPMI 1640 media, one containing 11 mM glucose (Gibco, Fisher Scientific, Sweden) and the other is glucose-free (Gibco, Fisher Scientific, Sweden). They were mixed in a 1:1 ratio, giving a final glucose concentration of 5.5 mM. The drugs were diluted in the recording solution and perfused into the chamber at specific concentrations using a peristaltic pump. After each drug application, the cells were perfused with the recording solution only to remove the drug. When the cells were again in the recording solution only, then the next test drug concentration was perfused into the chamber. This was done so that the receptors/cells had always been in a drug-free solution before a drug application, thus avoiding potential cumulative drug effects such as run-down or desensitization. The area around the individual cells was marked, and absolute fluorescence intensity values (F) were extracted using ZENBlue software. The relative intensity (F/Fmedian) for each cell was calculated for every recorded image and plotted against time. The peak relative intensity during the drug application was considered the drug’s response. Data are presented for all cells as scatter plots and box and whisker plots.
Single-cell data presentation and agonist-Ca^2+-response data were fitted in GraphPad Prism 10 (GraphPad Software Inc., La Jolla, CA, USA). The data were fitted using nonlinear regression with a standard dose–response model:
(F/Fmedian)max=[agonist]/[agonist]+(EC50)agonist

KCa3.1 channels = molecular target: T2, KCa3.1 channels (Homo sapiens, UniProt O15554); experiment: Calcium imaging: block of GABA-activated Ca2+ signal by KCa3.1 blocker; assay type: cell-based; conditions: GABA 500 nM; TRAM-34 1 µM; average, n = 169 cells, N = 3 donors
T2 construct: endogenous in cells
T2 sequence (O15554 whole entry): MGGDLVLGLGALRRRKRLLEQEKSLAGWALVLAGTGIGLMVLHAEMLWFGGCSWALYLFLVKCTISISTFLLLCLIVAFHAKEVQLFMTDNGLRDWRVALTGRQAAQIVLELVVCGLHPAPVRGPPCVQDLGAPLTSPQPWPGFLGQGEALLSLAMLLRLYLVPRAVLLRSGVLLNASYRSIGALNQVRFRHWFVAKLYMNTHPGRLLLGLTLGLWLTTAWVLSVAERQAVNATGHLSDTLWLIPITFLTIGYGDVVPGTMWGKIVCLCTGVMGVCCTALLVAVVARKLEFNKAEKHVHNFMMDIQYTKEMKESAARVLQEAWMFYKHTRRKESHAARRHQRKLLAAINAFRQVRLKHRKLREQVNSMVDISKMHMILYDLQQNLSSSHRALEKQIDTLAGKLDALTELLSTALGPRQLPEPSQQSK
Text: Peripheral blood mononuclear cells (PBMCs) were isolated from blood samples using density-gradient centrifugation with Ficoll-Paque™ PLUS (Sigma Aldrich, Sweden). Subsequently, CD4^+ T lymphocytes were isolated from the PBMCs by negative selection, utilizing a human CD4^+ T lymphocyte isolation kit (Miltenyi Biotec, Germany) as per the manufacturer’s instructions. The freshly isolated CD4^+ T lymphocytes (1 million cells/mL) were suspended in human plasma-like medium (HPLM) (Gibco, Fisher Scientific, Sweden) containing 10% heat-inactivated dialyzed fetal bovine serum (Gibco, Fisher Scientific, Sweden), 100 μg/mL streptomycin, 100 U/mL penicillin (Gibco, Fisher Scientific, Sweden), and 5 μM β-mercaptoethanol (Gibco, Fisher Scientific, Sweden). The cells were activated in a 96-well plate (1 × 10^5–1.2 × 10^5 cells/well) with 3 μg/mL plate-bound anti-CD3 antibody (BD Biosciences, USA) for 72 h. […]
In brief, cells were loaded with 3 μM Fluo-8 AM calcium indicator (AAT Bioquest, Pleasanton, CA, USA) for 10 min at 37 °C and then seeded onto coverslips coated with 5% (3-aminopropyl)triethoxysilane (Sigma Aldrich) for 20 min at 37 °C. […] The area around the individual cells was marked, and absolute fluorescence intensity values (F) were extracted using ZENBlue software. The relative intensity (F/Fmedian) for each cell was calculated for every recorded image and plotted against time. […]

CRAC channels = molecular target: T3, CRAC channels (Homo sapiens, UniProt Q96D31); experiment: Calcium imaging: block of GABA-mediated Ca2+ influx by CRAC channel inhibitor; assay type: cell-based; conditions: YM-58483 10 μM, acute application; n = 116 cells, N = 3 donors
T3 construct: endogenous in cells
T3 sequence (Q96D31 whole entry): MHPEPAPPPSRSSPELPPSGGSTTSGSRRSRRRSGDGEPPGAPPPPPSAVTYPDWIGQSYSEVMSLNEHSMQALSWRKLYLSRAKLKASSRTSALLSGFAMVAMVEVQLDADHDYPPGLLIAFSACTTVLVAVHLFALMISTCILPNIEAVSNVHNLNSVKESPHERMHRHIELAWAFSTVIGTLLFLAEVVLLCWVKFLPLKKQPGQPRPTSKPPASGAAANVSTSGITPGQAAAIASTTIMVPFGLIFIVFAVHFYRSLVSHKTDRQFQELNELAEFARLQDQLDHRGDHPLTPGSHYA
Text: Human blood samples and blood buffy coats were obtained from Uppsala University Hospital (Uppsala Akademiska sjukhuset), the protocol of which was approved by the Regional Research Ethics Committee in Uppsala (Dnr 2013/347). All individuals who donated blood were voluntarily recruited. Peripheral blood mononuclear cells (PBMCs) were isolated from blood samples using density-gradient centrifugation with Ficoll-Paque™ PLUS (Sigma Aldrich, Sweden). Subsequently, CD4^+ T lymphocytes were isolated from the PBMCs by negative selection, utilizing a human CD4^+ T lymphocyte isolation kit (Miltenyi Biotec, Germany) as per the manufacturer’s instructions. The freshly isolated CD4^+ T lymphocytes (1 million cells/mL) were suspended in human plasma-like medium (HPLM) (Gibco, Fisher Scientific, Sweden) containing 10% heat-inactivated dialyzed fetal bovine serum (Gibco, Fisher Scientific, Sweden), 100 μg/mL streptomycin, 100 U/mL penicillin (Gibco, Fisher Scientific, Sweden), and 5 μM β-mercaptoethanol (Gibco, Fisher Scientific, Sweden). […]
Calcium imaging was performed as previously described ([12]). […] The area around the individual cells was marked, and absolute fluorescence intensity values (F) were extracted using ZENBlue software. The relative intensity (F/Fmedian) for each cell was calculated for every recorded image and plotted against time. […]

CRAC channel current = molecular target: T4, CRAC channel current (Homo sapiens, UniProt Q96D31); experiment: Whole-cell patch-clamp recording of CRAC-channel-mediated current; assay type: cell-based
T4 construct: endogenous in cells
T4 sequence (Q96D31 whole entry): as above
Text: To study the effect of YM58483 and picrotoxin (PTX) on CRAC-channel-mediated currents, the electrophysiological patch-clamp recordings were done in the whole-cell configuration. The extracellular solution was composed of the following (in mM): 155 NaCl, 4.5 KCl, 2 CaCl2, 1 MgCl2, 5 HEPES, and 5.6 glucose (pH 7.4, adjusted with NaOH). The pipette solution consisted of the following (in mM): 140 Cs methanesulfonate, 10 NaCl, 3 MgCl2, 10 HEPES, and 10 EGTA (pH 7.3, with CsOH). We further examined the recovery of currents during repeated drug applications to evaluate the level of run-down and desensitization, if present. In these experiments, in order to keep the intracellular chloride concentration intact, gramicidin (2.6 μg/mL) was used to obtain the perforated configuration. The extracellular solution (in mM) contained the following: 157 NaCl, 4.5 KCl, 0.5 CaCl2, 1 MgCl2, 5 HEPES, and 5.6 glucose (pH 7.4, adjusted with NaOH), and the pipette solution consisted of the following (mM): 149 KCl, 2 CaCl2, 1 MgCl2, 1 NaCl, 10 HEPES, and 5.6 glucose (pH 7.3, adjusted with KOH). […] Recordings were performed with the help of an Axopatch 200B amplifier, filtered at 2 kHz, and digitized at 10 kHz with an analog-to-digital converter. For the recordings, the Clampex 10.5 (Molecular Devices, San Jose, CA, USA) program was used. […]

[4] = read-out: EC50, half-maximal activation concentration of the evoked Ca2+ signal; activated CD4+ T cells, 72 h post-activation, 1 nM insulin last 24 h, 5.5 mM glucose

## NCCCC(=O)O [GABA, γ-Aminobutyric acid]
[1]
  Ca2+ response in resting CD4+ T cells: does not evoke a calcium response
[2]; read-out: EC50 of the GABA-evoked Ca2+ signal
  EC50: 5 pM

## NC/C=C/C(=O)O [TACA, trans-4-aminocrotonic acid]
[3]; TACA vs GABA
  EC50 for the Ca2+-evoked signal relative to GABA (fold higher): approximately 500 fold
[3]; in 500 nM TACA
  relative maximum Ca2+ signal (F/Fmedian): 1.10
[3]; [4]
  EC50: 2.2 nM

## Oc1noc2c1CCNC2 [THIP, 4,5,6,7-tetrahydroisoxazolo(5,4-c)pyridin-3-ol]
[3]; in 100 nM THIP
  relative maximum Ca2+ signal (F/Fmedian): 1.20
[3]; [4]
  EC50: 0.005 nM

## Clc1ccccc1C(c1ccccc1)(c1ccccc1)n1cccn1 [TRAM-34]
KCa3.1 channels
  inhibition of GABA-induced increase in intracellular Ca2+ levels: ~100%

## Cc1nnsc1C(=O)Nc1ccc(-n2nc(C(F)(F)F)cc2C(F)(F)F)cc1 [YM58483]
CRAC channels
  effect on GABA (500 nM)-evoked increase in intracellular Ca2+ levels: inhibited
CRAC channel current; 10 μM YM58483, whole-cell, voltage ramps, current normalized to control
  reduction of the Ca2+ (CRAC channel) current: approximately 40%

## O=C(O)C1=CCNCC1 [isoguvacine]
[3]; activated CD4+ T cells, 72 h post-activation, 1 nM insulin last 24 h, 5.5 mM glucose; read-out: EC50, half-maximal activation concentration of the evoked Ca2+ signal
  EC50: 54.4 nM
[3]; in 10 μM isoguvacine
  relative maximum Ca2+ signal (F/Fmedian): 1.13

## NCc1cc(=O)[nH]o1 [muscimol]
[3]; at 1 μM muscimol
  relative maximum Ca2+ signal (F/Fmedian): approximately 1.17
[3]; [4]
  EC50: 0.162 nM

## Picrotoxin
CRAC channel current; whole-cell, current at -80 mV normalized to control, n = 3 cells, N = 2 donors
  effect on the Ca2+ (CRAC channel) current: did not reduce the Ca^2+ current
[2]
  effect on muscimol (500 nM)- or TACA (500 nM)-evoked Ca2+ signals: blocked
